Columns and labels:
Assay in all cases: cells
HOP-62 = format: functional, cell-based, Homo sapiens;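 further: cell growth inhibition determined with a viability assay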
Description: SANGER: Inhibition of human HOP-62 cell growth in a cell viability assay.

MEG-01 = format: functional, cell-based, Homo sapiens;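 further: growth inhibition of MEG-01 cells, read out by a cell viability assay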
Description: SANGER: Inhibition of human MEG-01 cell growth in a cell viability assay.

SK-N-FI = format: functional, cell-based, Homo sapiens;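 further: cell viability assay measuring growth inhibition of human SK-N-FI cells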
Description: SANGER: Inhibition of human SK-N-FI cell growth in a cell viability assay.

IST-MES1 = format: functional, cell-based, Homo sapiens;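 further: growth inhibition of IST-MES1 cells, measured with a cell viability assay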
Description: SANGER: Inhibition of human IST-MES1 cell growth in a cell viability assay.

MN-60 = format: functional, cell-based, Homo sapiens;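 further: growth inhibition of the MN-60 cell line, determined with a cell viability assay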
Description: SANGER: Inhibition of human MN-60 cell growth in a cell viability assay.

KMOE-2 = format: functional, cell-based, Homo sapiens;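 further: growth inhibition of human KMOE-2 cells, read out with a cell viability assay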
Description: SANGER: Inhibition of human KMOE-2 cell growth in a cell viability assay.

TE-5 = format: functional, cell-based, Homo sapiens;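 further: inhibition of cell growth, read out by a cell viability assay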
Description: SANGER: Inhibition of human TE-5 cell growth in a cell viability assay.

no-10 = format: functional, cell-based, Homo sapiens;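 further: growth inhibition of no-10 cells, read out with a cell viability assay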
Description: SANGER: Inhibition of human no-10 cell growth in a cell viability assay.

KARPAS-299 = format: functional, cell-based, Homo sapiens
Description: SANGER: Inhibition of human KARPAS-299 cell growth in a cell viability assay.

NOMO-1 = format: functional, cell-based, Homo sapiens;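 further: growth inhibition of human NOMO-1 cells measured by a cell viability assay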
Description: SANGER: Inhibition of human NOMO-1 cell growth in a cell viability assay.

NCI-H1395 = format: functional, cell-based, Homo sapiens;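 further: cell viability assay read-out quantifying reduced proliferation of human NCI-H1395 cells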
Description: SANGER: Inhibition of human NCI-H1395 cell growth in a cell viability assay.

EW-11 = format: functional, cell-based, Homo sapiens;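 further: growth inhibition of human EW-11 cells, measured with a cell viability assay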
Description: SANGER: Inhibition of human EW-11 cell growth in a cell viability assay.

8-MG-BA = format: functional, cell-based, Homo sapiens;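 further: growth inhibition of 8-MG-BA cells, read out with a cell viability assay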
Description: SANGER: Inhibition of human 8-MG-BA cell growth in a cell viability assay.

OS-RC-2 = format: functional, cell-based, Homo sapiens;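 further: growth inhibition of human OS-RC-2 cells, measured by a cell viability assay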
Description: SANGER: Inhibition of human OS-RC-2 cell growth in a cell viability assay.

COLO-824 = format: functional, cell-based, Homo sapiens
Description: SANGER: Inhibition of human COLO-824 cell growth in a cell viability assay.

RS4-11 = format: functional, cell-based, Homo sapiens;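 further: growth inhibition of RS4-11 cells, read out by a cell viability assay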
Description: SANGER: Inhibition of human RS4-11 cell growth in a cell viability assay.

VA-ES-BJ = format: functional, cell-based, Homo sapiens;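 further: growth inhibition of the VA-ES-BJ cell line, read out by a cell viability assay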
Description: SANGER: Inhibition of human VA-ES-BJ cell growth in a cell viability assay.

MSTO-211H = format: functional, cell-based, Homo sapiens
Description: SANGER: Inhibition of human MSTO-211H cell growth in a cell viability assay.

EW-24 = format: functional, cell-based, Homo sapiens; settings: Homo sapiens, EW-24;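 further: human EW-24 cancer cell line, growth inhibition read out via a cell viability assay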
Description: SANGER: Inhibition of human EW-24 cell growth in a cell viability assay.

SBC-1 = format: functional, cell-based, Homo sapiens;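 further: cell viability assay measuring growth inhibition of the SBC-1 cell line, IC50 being the concentration that halves growth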
Description: SANGER: Inhibition of human SBC-1 cell growth in a cell viability assay.

BB49-HNC = format: functional, cell-based, Homo sapiens;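 further: cell viability assay read-out, reported as inhibition of BB49-HNC cell growth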
Description: SANGER: Inhibition of human BB49-HNC cell growth in a cell viability assay.

NCI-H2126 = format: functional, cell-based, Homo sapiens;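 further: growth inhibition of the cancer cell line, determined with a cell viability readout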
Description: SANGER: Inhibition of human NCI-H2126 cell growth in a cell viability assay.

NH-12 = format: functional, cell-based, Homo sapiens;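 further: growth inhibition of NH-12 cells, read out with a cell viability assay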
Description: SANGER: Inhibition of human NH-12 cell growth in a cell viability assay.

LAMA-84 = format: functional, cell-based, Homo sapiens;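 further: growth inhibition of LAMA-84 cells, read out with a cell viability assay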
Description: SANGER: Inhibition of human LAMA-84 cell growth in a cell viability assay.

SK-MEL-1 = format: functional, cell-based, Homo sapiens;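 further: growth inhibition of human SK-MEL-1 cells, read out by a cell viability assay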
Description: SANGER: Inhibition of human SK-MEL-1 cell growth in a cell viability assay.

TE-12 = format: functional, cell-based, Homo sapiens;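 further: growth inhibition of TE-12 cells, read out by a cell viability assay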
Description: SANGER: Inhibition of human TE-12 cell growth in a cell viability assay.

P30-OHK = format: functional, cell-based, Homo sapiens;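 further: growth inhibition of the P30-OHK cell line, read out with a cell viability assay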
Description: SANGER: Inhibition of human P30-OHK cell growth in a cell viability assay.

QIMR-WIL = format: functional, cell-based, Homo sapiens;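 further: growth inhibition of QIMR-WIL cells, read out with a cell viability assay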
Description: SANGER: Inhibition of human QIMR-WIL cell growth in a cell viability assay.

MFH-ino = format: functional, cell-based, Homo sapiens;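 further: growth inhibition of human MFH-ino cells, read out by a cell viability assay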
Description: SANGER: Inhibition of human MFH-ino cell growth in a cell viability assay.

C2BBe1 = format: functional, cell-based, Homo sapiens;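 further: growth inhibition of C2BBe1 cells, read out through a viability assay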
Description: SANGER: Inhibition of human C2BBe1 cell growth in a cell viability assay.

MPP-89 = format: functional, cell-based, Homo sapiens;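 further: growth inhibition of human MPP-89 cells, read out with a cell viability assay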
Description: SANGER: Inhibition of human MPP-89 cell growth in a cell viability assay.

BB65-RCC = format: functional, cell-based, Homo sapiens;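 further: growth inhibition of the cell line, measured with a cell viability assay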
Description: SANGER: Inhibition of human BB65-RCC cell growth in a cell viability assay.

SK-PN-DW = format: functional, cell-based, Homo sapiens;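 further: growth inhibition measured with a viability assay on these cells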
Description: SANGER: Inhibition of human SK-PN-DW cell growth in a cell viability assay.

NCI-H747 = format: functional, cell-based, Homo sapiens;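 further: growth inhibition of human NCI-H747 cells, read out by a cell viability assay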
Description: SANGER: Inhibition of human NCI-H747 cell growth in a cell viability assay.

NCI-H1355 = format: functional, cell-based, Homo sapiens;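 further: growth inhibition of human NCI-H1355 cells, read out by a cell viability assay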
Description: SANGER: Inhibition of human NCI-H1355 cell growth in a cell viability assay.

COR-L88 = format: functional, cell-based, Homo sapiens;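 further: growth inhibition of COR-L88 cells, read out with a cell viability assay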
Description: SANGER: Inhibition of human COR-L88 cell growth in a cell viability assay.

BT-474 = format: functional, cell-based, Homo sapiens
Description: SANGER: Inhibition of human BT-474 cell growth in a cell viability assay.

CTB-1 = format: functional, cell-based, Homo sapiens
Description: SANGER: Inhibition of human CTB-1 cell growth in a cell viability assay.

U-87 MG = format: functional, cell-based, Homo sapiens, U-87MG ATCC;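 further: growth inhibition of the cells measured with a viability assay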
Description: SANGER: Inhibition of human U-87-MG cell growth in a cell viability assay.

MZ1-PC = format: functional, cell-based, Homo sapiens;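 further: cell viability assay measuring growth inhibition of human MZ1-PC cells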
Description: SANGER: Inhibition of human MZ1-PC cell growth in a cell viability assay.

KARPAS-45 = format: functional, cell-based, Homo sapiens;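 further: inhibition of cell line growth, read out through a viability assay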
Description: SANGER: Inhibition of human KARPAS-45 cell growth in a cell viability assay.

BE-13 = format: functional, cell-based, Homo sapiens;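 further: growth inhibition of human BE-13 cells, measured with a cell viability assay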
Description: SANGER: Inhibition of human BE-13 cell growth in a cell viability assay.

HCC2157 = format: functional, cell-based, Homo sapiens; settings: Homo sapiens, HCC2157;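 further: growth inhibition of the cancer cell line, read out as cell viability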
Description: SANGER: Inhibition of human HCC2157 cell growth in a cell viability assay.

D-392MG = format: functional, cell-based, Homo sapiens
MHH-NB-11 = format: functional, cell-based, Homo sapiens;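 further: growth inhibition of human MHH-NB-11 cells, read out by a cell viability assay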
Description: SANGER: Inhibition of human MHH-NB-11 cell growth in a cell viability assay.

DMS-114 = format: functional, cell-based, Homo sapiens
A704 = format: functional, cell-based, Homo sapiens; settings: a704;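 further: growth inhibition of human A704 cells, read out with a cell viability assay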
Description: SANGER: Inhibition of human A704 cell growth in a cell viability assay.

NCI-N87 = format: functional, cell-based, Homo sapiens; settings: nci-n87;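 further: growth inhibition of human NCI-N87 cells, read out with a cell viability assay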
Description: SANGER: Inhibition of human NCI-N87 cell growth in a cell viability assay.

CC[C@H](CO)Nc1nc(NCc2ccccc2)c2ncn(C(C)C)c2n1 [SELICICLIB]
IC50 (HOP-62; Homo sapiens, HOP-62): > 16 µM
IC50 (MEG-01; Homo sapiens, MEG-01): 13.8 µM
IC50 (SK-N-FI; Homo sapiens, SK-N-FI): > 16 µM
IC50 (IST-MES1; Homo sapiens, IST-MES1): > 16 µM
IC50 (MN-60; Homo sapiens, MN-60): > 16 µM
IC50 (KMOE-2; Homo sapiens, KMOE-2): > 16 µM
IC50 (TE-5; Homo sapiens, TE-5): > 16 µM
IC50 (no-10; Homo sapiens): > 16 µM
IC50 (KARPAS-299; Homo sapiens, KARPAS-299): > 16 µM
IC50 (NOMO-1; Homo sapiens, NOMO-1): > 16 µM
IC50 (NCI-H1395; Homo sapiens, NCI-H1395): > 16 µM
IC50 (EW-11; Homo sapiens, EW-11): > 16 µM
IC50 (8-MG-BA; Homo sapiens, 8-MG-BA): > 16 µM
IC50 (OS-RC-2; Homo sapiens, OS-RC-2): 15.8 µM
IC50 (COLO-824; Homo sapiens, COLO-824): > 16 µM
IC50 (RS4-11; Homo sapiens, RS4-11): > 16 µM
IC50 (VA-ES-BJ; Homo sapiens, VA-ES-BJ): > 16 µM
IC50 (MSTO-211H; Homo sapiens, MSTO-211H): > 16 µM
IC50 (EW-24): > 16 µM
IC50 (SBC-1; Homo sapiens, SBC-1): > 16 µM
IC50 (BB49-HNC; Homo sapiens, BB49-HNC): > 16 µM
IC50 (NCI-H2126; Homo sapiens, NCI-H2126): > 16 µM
IC50 (NH-12; Homo sapiens, NH-12): > 16 µM
IC50 (LAMA-84; Homo sapiens, LAMA-84): > 16 µM
IC50 (SK-MEL-1; Homo sapiens, SK-MEL-1): > 16 µM
IC50 (TE-12; Homo sapiens, TE-12): > 16 µM
IC50 (P30-OHK; Homo sapiens, P30-OHK): > 16 µM
IC50 (QIMR-WIL; Homo sapiens, QIMR-WIL): > 16 µM
IC50 (MFH-ino; Homo sapiens, MFH-ino): > 16 µM
IC50 (C2BBe1; Homo sapiens, C2BBe1): > 16 µM
IC50 (MPP-89; Homo sapiens, MPP-89): > 16 µM
IC50 (BB65-RCC; Homo sapiens, BB65-RCC): 9.97 µM
IC50 (SK-PN-DW; Homo sapiens, SK-PN-DW): > 16 µM
IC50 (NCI-H747; Homo sapiens, NCI-H747): > 16 µM
IC50 (NCI-H1355; Homo sapiens, NCI-H1355): > 16 µM
IC50 (COR-L88; Homo sapiens, COR-L88): > 16 µM
IC50 (BT-474; Homo sapiens, BT-474): > 16 µM
IC50 (CTB-1; Homo sapiens, CTB-1): > 16 µM
IC50 (U-87 MG; Homo sapiens, U-87 MG): > 16 µM
IC50 (MZ1-PC; Homo sapiens, MZ1-PC): > 16 µM
IC50 (KARPAS-45; Homo sapiens, KARPAS-45): > 16 µM
IC50 (BE-13; Homo sapiens, BE-13): > 16 µM
IC50 (HCC2157): > 16 µM
IC50 (D-392MG; Homo sapiens, D-392MG): > 16 µM
IC50 (MHH-NB-11; Homo sapiens, MHH-NB-11): > 16 µM
IC50 (DMS-114; Homo sapiens, DMS-114): > 16 µM

CISPLATIN
IC50 (HOP-62; hop-62): 659 µM
IC50 (MEG-01; meg-01): 21.7 µM
IC50 (SK-N-FI; sk-n-fi): 313 µM
IC50 (IST-MES1; ist-mes1): 19.7 µM
IC50 (MN-60; mn-60): 58.4 µM
IC50 (KMOE-2; kmoe-2): 25.2 µM
IC50 (TE-5; te-5): 211 µM
IC50 (no-10): 77.8 µM
IC50 (KARPAS-299; karpas-299): 172 µM
IC50 (NOMO-1; nomo-1): 123 µM
IC50 (NCI-H1395; nci-h1395): 43.4 µM
IC50 (EW-11; ew-11): 21 µM
IC50 (8-MG-BA; 8-mg-ba): 5.38 µM
IC50 (OS-RC-2; os-rc-2): 3.87 µM
IC50 (COLO-824; colo-824): 114 µM
IC50 (RS4-11; rs4-11): 5.57 µM
IC50 (VA-ES-BJ; va-es-bj): 2.45 µM
IC50 (MSTO-211H; msto-211h): 57.1 µM
IC50 (A704): 115 µM
IC50 (SBC-1; sbc-1): 141 µM
IC50 (BB49-HNC; bb49-hnc): 48.2 µM
IC50 (NCI-H2126; nci-h2126): 221 µM
IC50 (NH-12; nh-12): 13.2 µM
IC50 (LAMA-84; lama-84): 10.8 µM
IC50 (SK-MEL-1; sk-mel-1): 14.7 µM
IC50 (TE-12; te-12): 42.6 µM
IC50 (P30-OHK; p30-ohk): 2.71 µM
IC50 (QIMR-WIL; qimr-wil): 29.3 µM
IC50 (MFH-ino; mfh-ino): 1340 µM
IC50 (C2BBe1; c2bbe1): 97 µM
IC50 (MPP-89; mpp-89): 16.2 µM
IC50 (BB65-RCC; bb65-rcc): 2.82 µM
IC50 (SK-PN-DW; sk-pn-dw): 35 µM
IC50 (NCI-H747; nci-h747): 16.9 µM
IC50 (NCI-H1355; nci-h1355): 6.63 µM
IC50 (COR-L88; cor-l88): 319 µM
IC50 (BT-474; bt-474): 1100 µM
IC50 (CTB-1; ctb-1): 2.3 µM
IC50 (U-87 MG; u-87mg atcc): 16.2 µM
IC50 (MZ1-PC; mz1-pc): 29.9 µM
IC50 (KARPAS-45; karpas-45): 361 µM
IC50 (NCI-N87): 33 µM
IC50 (BE-13; be-13): 51.1 µM
IC50 (D-392MG; d-392mg): 11.9 µM
IC50 (MHH-NB-11; mhh-nb-11): 4.83 µM
IC50 (DMS-114; dms-114): 19.6 µM

Reference: ChEMBL document CHEMBL1201861, “Genomics of Drug Sensitity in Cancer screening data, Wellcome Trust Sanger Institute”
